From patent publication US9328112B2, “Tetracyclic CDK9 kinase inhibitors” (AbbVie Inc., priority 2014, dated 2016)

What was measured:
CDK9/Cyclin T1 = CDK9/Cyclin T1 (Homo sapiens (Human), UniProt P50750); assay: CDK9 enzyme assay (LANCE ULight TR-FRET kinase assay); assay type: biochemical; conditions: 1000 μM ATP, 100 nM ULight MBP, kinase reaction 1 hour
How it was run: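 TR-FRET readout (ex 320 nm; em 615/665 nm) after 1 h detection with 0.5 nM europium anti-phospho-MBP antibody in 20 mM EDTA stop buffer. Preceding 1 h kinase step: CDK9/Cyclin T1, ULight-MBP substrate at 100 nM, ATP at 1000 μM, compound pre-diluted in DMSO then buffer.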

H929 cells = assay: Cell viability assay (Cell TiterGlo); assay type: cell-based; conditions: Cell TiterGlo luminescence
Procedure: The cell viability assay was performed using H929 cells. Cells were seeded in 96-well plates at 10,000 cells/well and, after overnight incubation, treated with compounds in a dose response of 3-fold dilutions from 10 μM to 0.005 μM ([…], 0.1% final DMSO concentration). After 24 hours at 37° C., cell viability was measured using Cell TiterGlo reagent (Promega) with a luminescence reader.

[1] = Homo sapiens, NCI-H929, 24 hours at 37° C.

Sequence of CDK9/Cyclin T1 (P50750 whole entry): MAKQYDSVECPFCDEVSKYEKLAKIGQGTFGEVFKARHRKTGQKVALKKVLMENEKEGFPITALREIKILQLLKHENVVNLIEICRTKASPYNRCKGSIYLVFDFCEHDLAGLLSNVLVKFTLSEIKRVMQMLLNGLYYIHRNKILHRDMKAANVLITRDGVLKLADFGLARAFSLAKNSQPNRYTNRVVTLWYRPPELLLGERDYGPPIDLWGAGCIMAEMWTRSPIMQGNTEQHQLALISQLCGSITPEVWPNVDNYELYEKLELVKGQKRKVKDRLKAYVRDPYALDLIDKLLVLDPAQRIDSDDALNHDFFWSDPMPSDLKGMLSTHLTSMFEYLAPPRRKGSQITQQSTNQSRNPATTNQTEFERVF
Sequence of CDK9/Cyclin T1 (O60563 whole entry partner): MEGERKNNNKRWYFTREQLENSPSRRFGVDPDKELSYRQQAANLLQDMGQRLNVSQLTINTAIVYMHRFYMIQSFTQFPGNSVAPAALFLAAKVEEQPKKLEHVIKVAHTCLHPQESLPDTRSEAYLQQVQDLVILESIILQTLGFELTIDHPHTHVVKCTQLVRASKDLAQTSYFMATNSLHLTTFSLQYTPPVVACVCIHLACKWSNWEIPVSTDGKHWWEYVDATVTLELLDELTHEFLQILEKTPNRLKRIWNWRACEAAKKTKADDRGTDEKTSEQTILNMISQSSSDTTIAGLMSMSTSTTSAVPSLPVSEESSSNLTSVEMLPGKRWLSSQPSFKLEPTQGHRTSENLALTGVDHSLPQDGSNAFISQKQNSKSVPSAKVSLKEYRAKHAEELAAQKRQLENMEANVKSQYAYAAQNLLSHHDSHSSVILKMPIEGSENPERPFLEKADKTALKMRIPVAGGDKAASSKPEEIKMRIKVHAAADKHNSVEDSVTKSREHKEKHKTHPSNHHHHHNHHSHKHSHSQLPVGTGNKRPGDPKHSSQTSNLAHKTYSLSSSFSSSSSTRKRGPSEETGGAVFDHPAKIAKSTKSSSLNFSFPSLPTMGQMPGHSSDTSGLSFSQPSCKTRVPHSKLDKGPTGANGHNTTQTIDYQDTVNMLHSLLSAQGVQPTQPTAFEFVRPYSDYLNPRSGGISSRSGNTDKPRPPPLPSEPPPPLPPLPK

Row | Compound | IC50 (CDK9/Cyclin T1) | IC50 (H929 cells; 24 hours at 37° C.) | IC50 (H929 cells; [1])
1 | CN(C)C(=O)CN1CC=C(c2[nH]c3nccc4c3c2CCN(C)c2ccc(F)cc2-4)CC1 [Example 129, 2-[4-(8-fluoro-5-methyl-1,3,4,5-tetrahydro-1,5,12-triazabenzo[4,5]cycloocta[1,2,3-cd]inden-2-yl)-3,6-dihydropyridin-1(2H)-yl]-N,N-dimethylacetamide] | 67 nM | 130 nM | 
2 | CN1Cc2c(C3=CCN([C@H]4CC[C@H](CC(=O)O)CC4)CC3)[nH]c3nccc(c23)-c2cc(F)ccc21 [Example 130, {trans-4-[4-(10-fluoro-7-methyl-6,7-dihydro-4H-3,4,7-triazadibenzo[cd,f]azulen-5-yl)-3,6-dihydropyridin-1(2H)-yl]cyclohexyl}acetic acid] | 64 nM |  | 70 nM
3 | CN1Cc2c(C3=CCN(S(C)(=O)=O)CC3)[nH]c3nccc(c23)-c2cc(F)c(F)cc21 [Example 131, 9,10-difluoro-7-methyl-5-[1-(methylsulfonyl)-1,2,3,6-tetrahydropyridin-4-yl]-6,7-dihydro-4H-3,4,7-triazadibenzo[cd,f]azulene] | 36 nM |  | 79 nM
4 | CN(C)C(=O)CN1CC=C(c2[nH]c3nccc4c3c2CN(C)c2cc(F)c(F)cc2-4)CC1 [Example 132, 2-[4-(9,10-difluoro-7-methyl-6,7-dihydro-4H-3,4,7-triazadibenzo[cd,f]azulen-5-yl)-3,6-dihydropyridin-1(2H)-yl]-N,N-dimethylacetamide] | 40 nM |  | 14 nM
5 | COC(=O)C[C@H]1CC[C@@H](N2CC=C(c3[nH]c4nccc5c4c3CN(C)c3cc(F)c(F)cc3-5)CC2)CC1 [Example 134, methyl{cis-4-[4-(9,10-difluoro-7-methyl-6,7-dihydro-4H-3,4,7-triazadibenzo[cd,f]azulen-5-yl)-3,6-dihydropyridin-1(2H)-yl]cyclohexyl}acetate] | 47 nM |  | 310 nM
6 | CN1Cc2c(C3=CCNCC3)[nH]c3nccc(c23)-c2cccnc21 [Example 135, 7-methyl-5-(1,2,3,6-tetrahydropyridin-4-yl)-6,7-dihydro-4H-3,4,7,8-tetraazadibenzo[cd,f]azulene] | 63 nM |  | 76 nM
7 | CN1Cc2c(C3=CCN([C@H]4CC[C@@H](CC(=O)O)CC4)CC3)[nH]c3nccc(c23)-c2cc(F)c(F)cc21 [Example 136, {cis-4-[4-(9,10-difluoro-7-methyl-6,7-dihydro-4H-3,4,7-triazadibenzo[cd,f]azulen-5-yl)-3,6-dihydropyridin-1(2H)-yl]cyclohexyl}acetic acid] | 58 nM |  | 21 nM
8 | CN1Cc2c(C3=CCN(CC(=O)N4CC(O)C4)CC3)[nH]c3nccc(c23)-c2cc(F)c(F)cc21 [Example 137, 2-[4-(9,10-difluoro-7-methyl-6,7-dihydro-4H-3,4,7-triazadibenzo[cd,f]azulen-5-yl)-3,6-dihydropyridin-1(2H)-yl]-1-(3-hydroxyazetidin-1-yl)ethanone] | 52 nM |  | 45 nM
9 | CN1Cc2c(C3=CCN(S(C)(=O)=O)CC3)[nH]c3nccc(c23)-c2cccnc21 [Example 138, 7-methyl-5-[1-(methylsulfonyl)-1,2,3,6-tetrahydropyridin-4-yl]-6,7-dihydro-4H-3,4,7,8-tetraazadibenzo[cd,f]azulene] | 69 nM |  | 180 nM
10 | CNC(=O)N1CC=C(c2[nH]c3nccc4c3c2CN(C)c2ncccc2-4)CC1 [Example 139, N-methyl-4-(7-methyl-6,7-dihydro-4H-3,4,7,8-tetraazadibenzo[cd,f]azulen-5-yl)-3,6-dihydropyridine-1(2H)-carboxamide] | 94 nM |  | 180 nM
11 | CN1Cc2c(C3=CCN(C4CC(CC(=O)O)C4)CC3)[nH]c3nccc(c23)-c2cc(F)ccc21 (stereo not shown) [Example 140, {3-[4-(10-fluoro-7-methyl-6,7-dihydro-4H-3,4,7-triazadibenzo[cd,f]azulen-5-yl)-3,6-dihydropyridin-1(2H)-yl]cyclobutyl}acetic acid] | 42 nM |  | 58 nM
12 | CN1Cc2c(C3=CCN([C@H]4CC[C@H](C(=O)O)CC4)CC3)[nH]c3nccc(c23)-c2cc(F)ccc21 [Example 141, trans-4-[4-(10-fluoro-7-methyl-6,7-dihydro-4H-3,4,7-triazadibenzo[cd,f]azulen-5-yl)-3,6-dihydropyridin-1(2H)-yl]cyclohexanecarboxylic acid] | 51 nM |  | 30 nM
13 | CC[C@H]1c2c(C3=CCNCC3)[nH]c3nccc(c23)-c2cc(F)ccc2N1C [Example 142, (6S)-6-ethyl-10-fluoro-7-methyl-5-(1,2,3,6-tetrahydropyridin-4-yl)-6,7-dihydro-4H-3,4,7-triazadibenzo[cd,f]azulene] | 30 nM |  | 5 nM
14 | CC[C@@H]1c2c(C3=CCNCC3)[nH]c3nccc(c23)-c2cc(F)ccc2N1C [Example 143, (6R)-6-ethyl-10-fluoro-7-methyl-5-(1,2,3,6-tetrahydropyridin-4-yl)-6,7-dihydro-4H-3,4,7-triazadibenzo[cd,f]azulene] | 417 nM |  | 582 nM
15 | CN1Cc2c(C3=CCNCC3)[nH]c3nccc(c23)-c2cc(F)c(F)cc21 [Example 144, 9,10-difluoro-7-methyl-5-(1,2,3,6-tetrahydropyridin-4-yl)-6,7-dihydro-4H-3,4,7-triazadibenzo[cd,f]azulene] | 29 nM |  | 7 nM
16 | CN1Cc2c(C3=CCN(CC(=O)O)CC3)[nH]c3nccc(c23)-c2cc(F)c(F)cc21 [Example 145, [4-(9,10-difluoro-7-methyl-6,7-dihydro-4H-3,4,7-triazadibenzo[cd,f]azulen-5-yl)-3,6-dihydropyridin-1(2H)-yl]acetic acid] | 42 nM |  | 180 nM
17 | CN1Cc2c(C3=CCN([C@H]4CC[C@H](CC(=O)O)CC4)CC3)[nH]c3nccc(c23)-c2cc(F)c(F)cc21 [Example 146, {trans-4-[4-(9,10-difluoro-7-methyl-6,7-dihydro-4H-3,4,7-triazadibenzo[cd,f]azulen-5-yl)-3,6-dihydropyridin-1(2H)-yl]cyclohexyl}acetic acid] | 82 nM |  | 32 nM
18 | CN1Cc2c(C3=CCN(CC(=O)N4CCC[C@H]4CO)CC3)[nH]c3nccc(c23)-c2cc(F)c(F)cc21 [Example 147, 2-[4-(9,10-difluoro-7-methyl-6,7-dihydro-4H-3,4,7-triazadibenzo[cd,f]azulen-5-yl)-3,6-dihydropyridin-1(2H)-yl]-1-[(2S)-2-(hydroxymethyl)pyrrolidin-1-yl]ethanone] | 45 nM |  | 6 nM
19 | CN1Cc2c(C3=CCN(CC(=O)N(C)C4CC(O)C4)CC3)[nH]c3nccc(c23)-c2cc(F)c(F)cc21 (stereo not shown) [Example 148, 2-[4-(9,10-difluoro-7-methyl-6,7-dihydro-4H-3,4,7-triazadibenzo[cd,f]azulen-5-yl)-3,6-dihydropyridin-1(2H)-yl]-N-(3-hydroxycyclobutyl)-N-methylacetamide] | 53 nM |  | 25 nM
20 | CN(C)C(=O)CN1CC=C(c2[nH]c3nccc4c3c2CN(C)c2ncccc2-4)CC1 [Example 149, N,N-dimethyl-2-[4-(7-methyl-6,7-dihydro-4H-3,4,7,8-tetraazadibenzo[cd,f]azulen-5-yl)-3,6-dihydropyridin-1(2H)-yl]acetamide] | 110 nM |  | 160 nM
